Series [1] is described as follows: Hygroscopicity study by dynamic vapor sorption (DVS). As to conditions: 25° C. and 80% RH. Type of series: physicochemical. How it is done: Dynamic Vapor Sorption (DVS) Method in the Present Disclosure
Instrument model: SMS DVS Advantage dynamic vapor sorption instrument
Test conditions: samples (10 mg to 15 mg) were placed in a DVS sample tray for testing.
Detailed DVS parameters are as follows:
Balance: dm/dt=0.01%/min (shortest: 10 min, longest: 180 min)
Drying: 120 min under 0% RH
RH (%) test step range: 0% to 90% to 0%
The evaluation classification of hygroscopicity was as follows:
10 to 15 mg of the crystal form C of the compound of formula (II) was placed in the DVS sample tray for testing.
10 to 15 mg of the crystal form E of the compound of formula (II) was placed in the DVS sample tray for testing.

The nature of series [2]: Pharmacokinetic evaluation in mice, single intragastric administration. Type of series: in vivo, CD-1 mice (male). How it is done: Experimental Purposes: To Test the Pharmacokinetics of the Compound in Mice
CD-1 mice (male), vehicle (0.5% (w/v) methylcellulose 0.5% (v/v) Tween 80 aqueous solution), trifluoroacetate salt of compound 0027.
The vehicle was 0.5% (w/v) methylcellulose and 0.5% (v/v) Tween 80 aqueous solution, and the formulation was prepared according to the following procedure: […]
Preparation of formulation for intragastric administration: […]
Animals in groups 1 and 2 were given 5 mg/mL and 30 mg/mL compound by single intragastric administration, respectively, with a dose volume of 10 mL/kg.
The animals were weighed before administration, and the administration volume was calculated according to the body weight.
Whole blood samples (30 μL) were collected at specified times (0.25, 0.5, 1, 2, 4, 6, 8, 24 hours) by saphenous vein collection and the actual time of collection was recorded in the test record. The acceptable error for the collection time points was ±1 minute for time points within 1 hour of administration and ±5% of the theoretical time for other time points.
All blood samples were immediately transferred to labeled commercial centrifuge tubes containing K2-EDTA. […] And the pharmacokinetic parameters were calculated, experimental result: See Table 5.

For `COc1cc(OC)c(Cl)c(-c2nc(-c3nc(-c4cn(C)nc4C)cnc3N)cn(C)c2=O)c1` [crystal form C of the compound of formula (II)], in series [1], the Classification of hygroscopicity entry is on record as “slightly hygroscopic” and the “ΔW, hygroscopic weight gain” value stood at 1.1%.
On the same counts, the results for `COc1cc(OC)c(Cl)c(-c2nc(-c3nc(-c4cn(C)nc4C)cnc3N)cn(C)c2=O)c1` [crystal form E of the compound of formula (II)] are “slightly hygroscopic” and 0.5%.
Regarding `COc1cc(OC)c(Cl)c(-c2nc(-c3nc(-c4cn(C)nc4C)cnc3N)cn(C)c2=O)c1`, the Tlast in series [2] (CD-1 mice, intragastric, 300 mpk, plasma) came out at 24.0 h. Also, the “pharmacokinetic index in mice” value in series [2] (conclusion in words) is on record as “good”.
